Test results reported in patent EP2349259B1, “INHIBITORS OF MITOSIS FOR […] IN THERAPY” (Array Biopharma, Inc., priority 2008, dated 2010).

What was measured:
[1] = Determination of MTD of Compound 4 in mice (HT-29 xenograft study); conditions: mouse, in vivo; female nude mice with subcutaneous HT-29 xenografts; compound dissolved in normal saline
Procedure: Female nude mice were implanted subcutaneously with 5 x 10^6 HT-29 cells in 100 µL PBS. Ten days Inter, tumors were measured and mice randomized into groups of three with average tumor volume in each group of approximately 240 mm^3. Compound 4 was dissolved in normal saline immediately before dosing. It was determined that 20 mg/kg was the MTD for Compound 4. Dose volume was 10 mL/kg. Dosing was vehicle alone on day 1; and Compound 4 at 20 mg/kg on day 1; and 20 mg/kg on days 1 and 3. At various time points after dosing (24, 48, 72, 96, 120 and 144 hours), mice were euthanized by CO2 inhalation, and the tumors were harvested and immediately placed in formalin. The vehicle control group samples were collected 24 and 72 hours after dosing. The day I group samples were collected 24, 48, 72 and 96 hours after that dose. The day 1 and day 3 group samples were collected 72, 96, 120 and 144 hours after the first dose. Paraffin blocks of tumor tissue were prepared by standard procedures. […] Spindle structures were manually counted in three 40X areas of each sample, using a fluorescent microscope. Apoptosis was quantitated by manual counting of TUNEL positive cells, also in three 40X areas of each sample (TUNEL staining using the In Situ Cell Death Detection Kit, AP from Roche).

[2] = Tolerability in tumor growth inhibition study on different dosing schedules (HT-29); type: in vivo, nude mice; conditions: 10 mg/kg IP on days 1, 2, 3, 4 and 5
Procedure: Female nude mice were implanted subcutaneously with 5 x 10^6 HT-29 cells in 100 µL PBS. Eleven to fourteen days later, tumors were measured and mice randomized into groups of seven with average tumor volume in each group of approximately 230 mm^3. Compound 4 was dissolved in normal saline immediately prior to dosing, and administered IP at a volume of 10 mL/kg. Dosing was vehicle alone on day 1 and day 2; and Compound 4 at 20 mg/kg on day 1; 20 mg/kg on days I and 2; 20 mg/kg on days 1 and 3; 5 mg/kg on days 1, 2 and 3; 10 mg/kg on days 1, 2 and 3; 10 mg/kg on days 1, 2, 3, 4 and 5; 10 mg/kg on days 1 and 2; and 10 mg/kg on days 1 and 3. Animal weights and tumor volumes were measured (using electronic calipers) twice a week. Tumor volume was calculated using the formula: volume = (width^2 x length)/2. Dosing at 10 mg/kg on days 1, 2, 3, 4 and 5 was not tolerated (greater than 20% weight loss and/or death in some of the mice).

[3] = Determination of MTD in a Phase 1 Study; type: in vivo, human; conditions: IV on Days 1 and 2 every two weeks
From the text: A total of 13 patients with various solid tumors and with a median age of 66 years (range 40-79 years old) were enrolled in a human phase 1 clinical trial (see "Phase 1 Safety and Phamacokinetic Study of ARRY-520 in Solid Tumors." http://clinicaltrials.gov/ct2/show/NCT00462358). The solid tumors treated were breast cancer (2), colorectal cancer (2), non-small cell lung cancer (2), pancreatic cancer (2), bladder cancer, salivary gland cancer (adenoid cystic), esophageal cancer, mesothelioma cancer, and a mixed small cell lung cancer / non-small cell lung cancer. Compound 4 was provided for administration as a lyophilized powder contained in a Type 1 clear glass vial for IV use. The dose levels administered were 1.25 and 1.6 mg/m^2/day of Compound 4 on Days 1 and 2 every two weeks.

## CON(C)C(=O)N1N=C(c2cc(F)ccc2F)S[C@@]1(CCCN)c1ccccc1 [Compound 4, (S)-2-(3-aminopropyl)-5-(2,5-difluorophenyl)-N-methoxy-N-methyl-2-phenyl-1,3,4-thiadiazole-3(2H)-carboxamide]
[1]
  MTD: 20 mg/kg
[2]; female nude mice with HT-29 xenografts
  tolerability of dosing schedule: not tolerated
[2]; weight loss and/or death in some of the mice
  weight loss: greater than 20%
[3]; 13 patients with various solid tumors, dose levels 1.25 and 1.6 mg/m^2/day
  MTD: 1.25 mg/m^2/day
[3]; patients with solid tumors
  DLTs: Grade 3 hyponatremia, anorexia, AST increase and febrile neutropenia
  MTD, cumulative dose per cycle: 2.5 mg/m^2
